Laboratory results reported in patent US20150258129A1, “Method for Increasing the Activity of Lysosomal Enzymes” (Mount Sinai School of Medicine of New York University, priority 1998, published 2015).
Where a chain is given by its changes, count along the chain named. Blank lines part the entries; values can stand above or below the compound they belong to.

Assays:
[1] = molecular target: T1, glucocerebrosidase (β-Glu), L444P/L444P (Homo sapiens, UniProt P04062, L483P); assay: Intracellular enhancement of β-Glu activity in Gaucher fibroblasts (L444P/L444P); format: cell-based; conditions: 10 μM, 5 days
T1 construct: endogenous in cells; host or cells: human Gaucher patient fibroblasts, genotype L444P/L444P
T1 sequence (P04062 40-536 L483P): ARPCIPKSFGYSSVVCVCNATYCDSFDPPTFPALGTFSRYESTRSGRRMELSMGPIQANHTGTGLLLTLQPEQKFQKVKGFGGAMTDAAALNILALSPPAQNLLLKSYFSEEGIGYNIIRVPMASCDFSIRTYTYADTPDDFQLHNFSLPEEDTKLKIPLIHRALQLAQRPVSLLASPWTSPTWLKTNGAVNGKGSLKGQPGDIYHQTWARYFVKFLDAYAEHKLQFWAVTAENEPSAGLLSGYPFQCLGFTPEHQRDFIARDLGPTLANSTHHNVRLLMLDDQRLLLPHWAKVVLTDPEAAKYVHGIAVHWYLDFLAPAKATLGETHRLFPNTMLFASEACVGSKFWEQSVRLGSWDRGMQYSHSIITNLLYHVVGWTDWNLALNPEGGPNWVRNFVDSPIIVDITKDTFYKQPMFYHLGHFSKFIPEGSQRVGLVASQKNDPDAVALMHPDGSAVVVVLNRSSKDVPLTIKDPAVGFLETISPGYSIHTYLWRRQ

human lysosomal α-Gal A = molecular target: T2, human lysosomal α-Gal A (Homo sapiens, UniProt P06280); assay: In vitro inhibition of α-Gal A (recombinant, expressed in Sf-9 insect cells); format: biochemical
T2 construct: made in house; host or cells: Sf-9 insect cells, recombinant baculovirus
T2 sequence (P06280 32-429): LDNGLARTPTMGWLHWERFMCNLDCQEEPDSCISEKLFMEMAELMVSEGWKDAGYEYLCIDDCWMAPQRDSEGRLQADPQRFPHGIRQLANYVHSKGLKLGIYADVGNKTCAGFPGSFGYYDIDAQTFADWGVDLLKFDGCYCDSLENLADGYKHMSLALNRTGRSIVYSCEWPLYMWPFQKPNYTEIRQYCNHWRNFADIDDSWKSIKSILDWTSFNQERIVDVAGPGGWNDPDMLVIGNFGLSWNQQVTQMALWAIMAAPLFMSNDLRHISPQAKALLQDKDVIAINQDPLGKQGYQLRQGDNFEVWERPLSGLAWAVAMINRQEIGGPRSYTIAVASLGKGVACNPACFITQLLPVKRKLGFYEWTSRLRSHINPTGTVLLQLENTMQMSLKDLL

[2] = test system: lysosomal acid β-galactosidase (β-Gal); assay: Intracellular enhancement of β-Gal activity in GM1-gangliosidosis fibroblasts; format: cell-based, human; conditions: for β-Gal enhancement effect in fibroblasts of infant type disease (BGF-1 and BGF-6): DGJ 500 μM, 4-epi-isofagomine 50 μM; for intracellular β-Gal activity in GM1-gangliosidosis fibroblasts (summary): concentration ranges of 50-500 μM
Protocol: In FIG. 7A, GM1-gangliosidosis fibroblasts were cultured with DGJ (4) at 500 μM for 5 days before being collected for enzyme assay. In FIG. 7B, GM1-gangliosidosis fibroblasts were cultured with 4-epi-isofagomine (21) at 50 μM for 5 days before being collected for enzyme assay. Strains BGF-1 and BGF-6 were diagnosed as infantile type, and all others were juvenile or adult types.
(§1) The Epstein-Barr virus-transformed lymphoblast lines from a normal adult and a Fabry patient with R301Q mutation in α-Gal A (38) were cultured in RPMI-1640 medium (Nissui Pharmaceutical Co., Tokyo, Japan) supplemented with 10% fetal calf serum (FCS) at 37° C. under 5% CO2. Human fibroblasts from Gaucher and GM1-gangliosidosis patients were cultured in McCoy 5A medium supplemented with 10% FCS at 37° C. under 5% CO2.
(§2) Cells were cultured in the presence or absence of inhibitor for 5 days. After being washed twice with PBS, the cells were harvested and homogenized in 200 μl of H2O, and 10 μl of the supernatant obtained by centrifugation at 10,000 g was incubated at 37° C. with 50 μl of the substrate solution of 1 mM 4-methylumbelliferyl β-D-galactoside (4-MU-β-Gal) in 0.1 M citrate buffer (pH 4.5) for enzyme assay. One unit of intracellular enzyme activity was defined as one nmol of 4-methylumbelliferone released per hour at 37° C.

[3] = test system: globotriaosylceramide metabolism; assay: Intracellular globotriaosylceramide metabolism with inhibitor in the medium; format: cell-based; conditions: 20 μM in the medium
[4] = molecular target: coffee bean α-galactosidase (Coffea arabica, UniProt Q42656); conditions: cited from earlier work
coffee bean α-galactosidase, sequence (Q42656 16-378): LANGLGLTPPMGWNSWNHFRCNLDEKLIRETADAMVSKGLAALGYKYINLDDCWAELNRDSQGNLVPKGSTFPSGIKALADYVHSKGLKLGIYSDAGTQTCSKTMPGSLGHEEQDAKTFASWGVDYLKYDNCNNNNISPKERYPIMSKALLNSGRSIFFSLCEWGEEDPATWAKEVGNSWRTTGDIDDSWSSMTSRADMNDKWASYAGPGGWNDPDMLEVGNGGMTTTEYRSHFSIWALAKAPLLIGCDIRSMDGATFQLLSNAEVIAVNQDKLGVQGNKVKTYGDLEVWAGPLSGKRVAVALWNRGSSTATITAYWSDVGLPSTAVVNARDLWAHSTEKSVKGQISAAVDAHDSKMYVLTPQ

mutant α-Gal A (R301Q) [5] = molecular target: T3, mutant α-Gal A (R301Q) (Homo sapiens, UniProt P06280, R301Q); conditions: neutral pH; cited from earlier work
T3 sequence (P06280 32-429 R301Q): T2 sequence (P06280 32-429) with R270Q

mutant (R301Q) α-Gal A = molecular target: T4, mutant (R301Q) α-Gal A (Homo sapiens, UniProt P06280, R301Q); conditions: oral administration, mice overexpressing mutant (R301Q) α-Gal A; cited from earlier work
T4 construct: host or cells: transgenic mice (organs)
T4 sequence (P06280 32-429 R301Q): T2 sequence (P06280 32-429) with R270Q

mutant α-Gal A (R301Q) [6] = molecular target: T3, mutant α-Gal A (R301Q); assay: Intracellular enhancement of α-Gal A activity in Fabry lymphoblasts; format: cell-based; design: endogenous in cells; host or cells: Epstein-Barr virus-transformed lymphoblasts from a Fabry patient (R301Q); conditions: for increase of α-Gal A enzyme activity in R301Q lymphoblasts: inhibitor at 100 μM; for intracellular α-Gal A activity in Fabry lymphoblasts (summary): concentration ranges of 10-1000 μM; for α-Gal A activity in R301Q lymphoblasts with increasing concentration of calystegine compound: range 100-1000 μM, FIG. 6
Protocol: FIG. 4B depicts results in which each inhibitor was added to the culture medium of R301Q lymphoblasts at a concentration of 100 μM. Cells were subsequently incubated for 4 days. After being washed twice with phosphate-buffered saline, the intracellular enzyme activity was determined with 4-MU-α-Gal as the substrate.
R301Q lymphoblasts were cultured with DGJ (4) ([…]), α-allo-HNJ (9) (▪), α-galacto-HNJ (10) (▴), or β-1-C-butyl-DGJ (16) (♦) at 1-1000 μM for 4 days before being collected for enzyme assay.
In FIG. 6B, R301Q lymphoblasts were cultured with calystegine B2 (18) and the results are shown therein. In FIG. 6C, R301Q lymphoblasts were cultured with N-methyl calystegine A3 (19) and the results are shown therein. In FIG. 6D R301Q lymphoblasts were cultured with N-methyl calystegine B2 (20) at 100-1000 μM for 4 days before being collected for enzyme assay and the results are shown therein.
as §1
as §2, with “for 4” for “for 5”, “with phosphate-buffered saline (PBS),” for “with PBS,”, “solution composed by 6” for “solution of 1”, “4-methylumbelliferyl α-D-galactoside (4-MU-α-Gal) and 90 mM N-acetylgalactosamine” for “4-methylumbelliferyl β-D-galactoside (4-MU-β-Gal)”

mutant α-Gal A (R301Q) [7] = molecular target: T3, mutant α-Gal A (R301Q); design: endogenous in cells; host or cells: Epstein-Barr virus-transformed lymphoblasts from a Fabry patient (R301Q); conditions: R301Q or Q279E mutations; cited from earlier work
[8] = molecular target: human β-glucocerebrosidase (Homo sapiens, UniProt P04062); assay: In vitro inhibition of human β-glucocerebrosidase; format: biochemical; conditions: 0.1M citrate buffer (pH 5.2), 4-MU-β-Glu as substrate
human β-glucocerebrosidase, sequence (P04062 40-536): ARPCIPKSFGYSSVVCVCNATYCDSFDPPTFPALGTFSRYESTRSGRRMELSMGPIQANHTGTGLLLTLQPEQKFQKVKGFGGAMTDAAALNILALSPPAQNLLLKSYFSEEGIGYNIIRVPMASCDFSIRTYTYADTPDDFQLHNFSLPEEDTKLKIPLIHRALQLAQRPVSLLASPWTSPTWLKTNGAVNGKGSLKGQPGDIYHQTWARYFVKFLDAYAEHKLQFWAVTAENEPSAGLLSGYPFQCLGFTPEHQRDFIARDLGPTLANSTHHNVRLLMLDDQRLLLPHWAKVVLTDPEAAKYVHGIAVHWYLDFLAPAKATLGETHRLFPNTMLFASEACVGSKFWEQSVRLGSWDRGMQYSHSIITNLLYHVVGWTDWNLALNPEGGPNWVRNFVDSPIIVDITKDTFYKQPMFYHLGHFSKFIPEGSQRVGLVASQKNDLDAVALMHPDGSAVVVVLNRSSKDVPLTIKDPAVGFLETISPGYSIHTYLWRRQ

[9] = molecular target: T5, glucocerebrosidase (β-Glu), N370S/N370S (Homo sapiens, UniProt P04062, N409S); assay: Intracellular enhancement of β-Glu activity in Gaucher fibroblasts (N370S/N370S); format: cell-based; conditions: concentration ranges of 0.05-100 μM
T5 construct: endogenous in cells; host or cells: human Gaucher patient fibroblasts, genotype N370S/N370S
T5 sequence (P04062 40-536 N409S): T1 sequence (P04062 40-536 L483P) with N370S, P444L

Compound: O[C@@H]1C[C@]2(O)N[C@H]1C[C@@H](O)[C@@H]2O [calystegine B1]
increase of residual β-Glu activity in Gaucher fibroblasts [1]: 76%

Compound: O[C@@H]1[C@@H](O)[C@H](O)[C@]2(O)C[C@@H](O)[C@H]1N2 [calystegine C1]
increase of residual β-Glu activity in Gaucher fibroblasts [1]: 136%

Compound: OC[C@H]1NC[C@H](O)[C@@H](O)[C@H]1O [compound 4, 1-Deoxygalactonojirimycin]
inhibition mode toward α-Gal A (Lineweaver-Burk plots) (human lysosomal α-Gal A): competitive inhibitors | increase of residual β-Gal activity in BGF-7 fibroblasts ([2]; 500 μM, 5 days, FIG. 7A): 27 fold | β-Gal enhancement effect in fibroblasts of infant type disease (BGF-1 and BGF-6) ([2]; 5 days): not efficient | intracellular β-Gal activity in GM1-gangliosidosis fibroblasts (summary) [2]: effectively enhance | intracellular inhibition of globotriaosylceramide metabolism [3]: did not cause intracellular inhibition | inhibition of coffee bean α-galactosidase (in words) [4]: extremely powerful inhibitor | in vitro stability of mutant α-Gal A (R301Q) (mutant α-Gal A (R301Q) [5]): effectively increased in vitro stability | enzyme activity in major organs of transgenic mice (mutant (R301Q) α-Gal A): substantially elevated the enzyme activity | α-Gal A enzyme activity in R301Q lymphoblasts reached, % of normal (mutant α-Gal A (R301Q) [6]; 100 μM, 4 days): 49 % of normal | increase of α-Gal A enzyme activity in R301Q lymphoblasts (mutant α-Gal A (R301Q) [6]; 4 days): about 14 fold | α-Gal A activity in R301Q lymphoblasts with increasing inhibitor concentration (mutant α-Gal A (R301Q) [6]; range 1-100 μM, FIG. 5): elevated with increasing inhibitor concentration | mutant enzyme activity in lymphoblasts from Fabry patients (mutant α-Gal A (R301Q) [7]): enhanced the mutant enzyme activity

Compound: CCCCC1NC(CO)C(O)C(O)C1O (stereo not drawn) [compound 16, β-1-C-Butyl-deoxygalactonojirimycin]
inhibition mode toward α-Gal A (Lineweaver-Burk plots) (human lysosomal α-Gal A): competitive inhibitors | Ki (human lysosomal α-Gal A; p-nitrophenyl-α-D-galactopyranoside as substrate, read-out: Ki for α-Gal A, from the slope of Lineweaver-Burk plots): 16 µM | IC50 (human lysosomal α-Gal A; read-out: IC30 and (Ki)*: IC50 values (inhibitor concentration giving 50% inhibition) for α-Gal A, p-nitrophenyl-α-D-galactopyranoside as substrate, pH 4.5): 24 µM | IC50 [4]: 0.71 µM | intracellular α-Gal A activity in Fabry lymphoblasts (summary) (mutant α-Gal A (R301Q) [6]): effectively increase | increase of α-Gal A enzyme activity in R301Q lymphoblasts (mutant α-Gal A (R301Q) [6]; 4 days): 2.3 fold | enhancement of α-Gal A activity in R301Q lymphoblasts (mutant α-Gal A (R301Q) [6]; inhibitor at 1000 μM, 4 days): 6.3 fold

Compound: O[C@@H]1C[C@H]2CC[C@](O)(N2)[C@H]1O [compound 17, Calystegine A3]
IC50 [8]: 3.1 µM | intracellular β-Glu activity in Gaucher fibroblasts (summary) [9]: effectively enhance | increase of residual β-Glu activity in Gaucher fibroblasts [1]: 126% | intracellular α-Gal A activity in Fabry lymphoblasts (summary) (mutant α-Gal A (R301Q) [6]): effectively increase | α-Gal A activity in R301Q lymphoblasts with increasing concentration of calystegine compound (mutant α-Gal A (R301Q) [6]; 4 days): elevated with increasing concentration

Compound: O[C@@H]1[C@@H](O)[C@H](O)[C@]2(O)CC[C@H]1N2 [compound 18, calystegine B2]
IC50 [8]: 0.99 µM | intracellular β-Glu activity in Gaucher fibroblasts (summary) [9]: effectively enhance | increase of residual β-Glu activity in Gaucher fibroblasts [1]: 230% | intracellular α-Gal A activity in Fabry lymphoblasts (summary) (mutant α-Gal A (R301Q) [6]): effectively increase | α-Gal A activity in R301Q lymphoblasts with increasing concentration of calystegine compound (mutant α-Gal A (R301Q) [6]; 4 days): elevated with increasing concentration

β-Gal enhancement effect in fibroblasts of infant type disease (BGF-1 and BGF-6) ([2]; 5 days): not efficient | intracellular β-Gal activity in GM1-gangliosidosis fibroblasts (summary) [2]: effectively enhance | intracellular β-Gal activity elevated to, % of normal ([2]; fibroblasts of juvenile and adult types, 5 days, FIG. 7B (50 μM)): 9-53 % of normal
Compound: OC[C@H]1CNC[C@@H](O)[C@H]1O [compound 21, 4-epi-isofagomine]
